#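 Results reflect a 48-hour exposure of cells in 96-well plates to compound at five concentrations. TGI is the concentration that stops growth completely.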 Where a SMILES comes first, the peptide text is derived from it. [ ]: non-standard residue; d: D form. The star is where a group is joined. ξ: configuration not given here. ξD = NC(CC(=O)O)C(=O)O; Boc = CC(C)(C)OC(=O)*; Aib = CC(C)(N)C(=O)O; OBn = c1ccc(CO*)cc1
# What was measured:
# Assay in all cases: DTP human tumour cell line panel, 48 h
# OVCAR-8 ovarian = test system: OVCAR-8 ovarian
# MDA-N = test system: MDA-N
# RXF 393 renal = test system: RXF 393 renal
# OVCAR-4 ovarian = test system: OVCAR-4 ovarian
# SK-MEL-5 melanoma = test system: SK-MEL-5 melanoma
# HT29 colon = test system: HT29 colon
# COLO 205 colon = test system: COLO 205 colon
# SK-MEL-2 melanoma = test system: SK-MEL-2 melanoma
# SF-268 CNS = test system: SF-268 CNS
# NCI-H23 lung = test system: NCI-H23 lung
# HOP-62 NSCLC = test system: HOP-62 NSCLC
# NCI-H460 lung = test system: NCI-H460 lung
smiles,measurement,setting,value
CC1(C)CN(CC(=O)O)CC(Cc2ccc(OCC(=O)O)cc2)N(CC(=O)O)CC(C)(C)SS1 (stereo unspecified),TGI,OVCAR-8 ovarian,> 100 µM
same,TGI,MDA-N,> 100 µM
same,TGI,RXF 393 renal,> 100 µM
same,TGI,OVCAR-4 ovarian,> 100 µM
same,TGI,SK-MEL-5 melanoma,> 100 µM
same,TGI,HT29 colon,> 100 µM
same,TGI,COLO 205 colon,> 100 µM
same,TGI,SK-MEL-2 melanoma,> 100 µM
same,TGI,SF-268 CNS,> 100 µM
same,TGI,NCI-H23 lung,> 100 µM
same,TGI,HOP-62 NSCLC,> 100 µM
same,TGI,NCI-H460 lung,> 100 µM
CC(C)(C)OC(=O)NC(CC(=O)OCc1ccccc1)C(=O)NC(C)(C)C(N)=O (stereo unspecified) (Boc-[ξD](OBn)-[Aib]-NH2),TGI,OVCAR-8 ovarian,> 100 µM
same,TGI,MDA-N,> 100 µM
same,TGI,RXF 393 renal,> 100 µM
same,TGI,OVCAR-4 ovarian,> 100 µM
same,TGI,SK-MEL-5 melanoma,> 100 µM
same,TGI,HT29 colon,> 100 µM
same,TGI,COLO 205 colon,> 100 µM
same,TGI,SK-MEL-2 melanoma,> 100 µM
same,TGI,SF-268 CNS,> 100 µM
same,TGI,NCI-H23 lung,> 100 µM
same,TGI,HOP-62 NSCLC,> 100 µM
same,TGI,NCI-H460 lung,> 100 µM
CC(C)CC(=O)CC(C)[C@]1(CCCOCc2ccccc2)C(=O)N2CCC3(C[C@@]24CCC[C@H]41)OCCO3 (stereo partly specified),TGI,OVCAR-8 ovarian,> 10 µM
same,TGI,MDA-N,> 10 µM
same,TGI,OVCAR-4 ovarian,> 10 µM
same,TGI,SK-MEL-5 melanoma,> 10 µM
same,TGI,COLO 205 colon,> 10 µM
same,TGI,SK-MEL-2 melanoma,> 10 µM
same,TGI,SF-268 CNS,> 10 µM
same,TGI,NCI-H23 lung,> 10 µM
same,TGI,HOP-62 NSCLC,> 10 µM
same,TGI,NCI-H460 lung,> 10 µM
O=C(N/C(=C\c1ccccc1)c1nc2ccccc2c(=O)o1)c1ccccc1,TGI,OVCAR-8 ovarian,> 100 µM
same,TGI,MDA-N,> 100 µM
same,TGI,RXF 393 renal,> 100 µM
same,TGI,OVCAR-4 ovarian,> 100 µM
same,TGI,SK-MEL-5 melanoma,> 100 µM
same,TGI,HT29 colon,> 100 µM
same,TGI,COLO 205 colon,> 100 µM
same,TGI,SK-MEL-2 melanoma,> 100 µM
same,TGI,SF-268 CNS,> 78.2 µM
same,TGI,NCI-H23 lung,> 100 µM
same,TGI,HOP-62 NSCLC,> 100 µM
same,TGI,NCI-H460 lung,> 100 µM
O=C(NCCCCCCCCNC(=O)Nc1cccc2ccccc12)Nc1cccc2ccccc12,TGI,OVCAR-8 ovarian,> 100 µM
same,TGI,MDA-N,> 100 µM
same,TGI,RXF 393 renal,67.6 µM
same,TGI,OVCAR-4 ovarian,4.18 µM
same,TGI,SK-MEL-5 melanoma,> 100 µM
same,TGI,HT29 colon,> 100 µM
same,TGI,COLO 205 colon,> 100 µM
same,TGI,SK-MEL-2 melanoma,> 100 µM
same,TGI,SF-268 CNS,45.8 µM
same,TGI,NCI-H23 lung,> 100 µM
same,TGI,HOP-62 NSCLC,50.6 µM
same,TGI,NCI-H460 lung,13.4 µM
NCCCN(CCCCN(CCCN)Cc1ccccc1)Cc1ccccc1,TGI,OVCAR-8 ovarian,> 100 µM
same,TGI,MDA-N,33.1 µM
same,TGI,RXF 393 renal,> 100 µM
same,TGI,OVCAR-4 ovarian,> 100 µM
same,TGI,SK-MEL-5 melanoma,> 100 µM
same,TGI,HT29 colon,44.1 µM
same,TGI,COLO 205 colon,> 100 µM
same,TGI,SF-268 CNS,37.1 µM
same,TGI,NCI-H23 lung,> 100 µM
same,TGI,NCI-H460 lung,32.2 µM
CCN(CC)CCCNc1ccc([N+](=O)[O-])c2nc3ccccc3c(N)c12,TGI,OVCAR-8 ovarian,4.51 µM
same,TGI,RXF 393 renal,1.52 µM
same,TGI,OVCAR-4 ovarian,1.94 µM
same,TGI,SK-MEL-5 melanoma,1.53 µM
same,TGI,HT29 colon,1.81 µM
same,TGI,SK-MEL-2 melanoma,2.53 µM
same,TGI,SF-268 CNS,> 10 µM
same,TGI,NCI-H23 lung,2.76 µM
same,TGI,HOP-62 NSCLC,> 10 µM
same,TGI,NCI-H460 lung,1.44 µM
CC(NNC(=O)c1ccncc1)c1ccccc1 (stereo unspecified),TGI,OVCAR-8 ovarian,> 100 µM
same,TGI,MDA-N,> 100 µM
same,TGI,RXF 393 renal,> 100 µM
same,TGI,OVCAR-4 ovarian,> 100 µM
same,TGI,SK-MEL-5 melanoma,> 100 µM
same,TGI,HT29 colon,> 100 µM
same,TGI,COLO 205 colon,> 100 µM
same,TGI,SK-MEL-2 melanoma,> 100 µM
same,TGI,SF-268 CNS,> 100 µM
same,TGI,NCI-H23 lung,> 100 µM
same,TGI,HOP-62 NSCLC,> 100 µM
C/C(=C/CC[C@](C)(OC1OC(CO)C(O)C(O)C1O)[C@H]1CC[C@]2(C)[C@@H]1CC[C@@H]1[C@@]3(C)CC[C@H](O)C(C)(C)[C@@H]3C[C@H](O)[C@]12CO)CO (stereo partly specified),TGI,OVCAR-8 ovarian,> 100 µM
same,TGI,MDA-N,> 100 µM
same,TGI,RXF 393 renal,> 100 µM
same,TGI,OVCAR-4 ovarian,> 100 µM
same,TGI,SK-MEL-5 melanoma,> 100 µM
same,TGI,HT29 colon,> 100 µM
same,TGI,COLO 205 colon,> 100 µM
same,TGI,SF-268 CNS,> 100 µM
same,TGI,NCI-H23 lung,> 100 µM
same,TGI,HOP-62 NSCLC,> 100 µM
same,TGI,NCI-H460 lung,> 100 µM
COc1ccccc1NC1Oc2cc3c(cc2C(c2cc(OC)c(OC)c(OC)c2)C1C)OCO3 (stereo unspecified),TGI,OVCAR-8 ovarian,> 64.2 µM
same,TGI,MDA-N,1.82 µM
same,TGI,RXF 393 renal,7.62 µM
same,TGI,OVCAR-4 ovarian,> 78.5 µM
same,TGI,SK-MEL-5 melanoma,16.8 µM
same,TGI,HT29 colon,> 100 µM
same,TGI,COLO 205 colon,5.79 µM
same,TGI,SK-MEL-2 melanoma,> 100 µM
same,TGI,SF-268 CNS,> 46.2 µM
same,TGI,NCI-H23 lung,> 82.1 µM
same,TGI,HOP-62 NSCLC,> 51.1 µM
same,TGI,NCI-H460 lung,> 100 µM
CCOC(=O)C(=[N+]=[N-])C(=O)CSC#N,TGI,OVCAR-8 ovarian,> 100 µM
same,TGI,MDA-N,> 100 µM
same,TGI,RXF 393 renal,> 100 µM
same,TGI,OVCAR-4 ovarian,> 100 µM
same,TGI,SK-MEL-5 melanoma,> 100 µM
same,TGI,HT29 colon,> 100 µM
same,TGI,COLO 205 colon,> 100 µM
same,TGI,SK-MEL-2 melanoma,> 100 µM
same,TGI,SF-268 CNS,> 100 µM
same,TGI,NCI-H23 lung,> 100 µM
same,TGI,HOP-62 NSCLC,> 100 µM
O=C(O)CCC(NC(=O)c1ccc(Oc2nc3ccccc3nc2C(=O)O)cc1)C(=O)O (stereo unspecified),TGI,OVCAR-8 ovarian,> 100 µM
same,TGI,RXF 393 renal,> 100 µM
same,TGI,OVCAR-4 ovarian,> 100 µM
same,TGI,SK-MEL-5 melanoma,> 100 µM
same,TGI,HT29 colon,> 100 µM
same,TGI,COLO 205 colon,> 100 µM
same,TGI,SK-MEL-2 melanoma,> 100 µM
same,TGI,SF-268 CNS,> 100 µM
same,TGI,NCI-H23 lung,> 100 µM
same,TGI,HOP-62 NSCLC,> 100 µM
same,TGI,NCI-H460 lung,> 100 µM
O=C(C[C@@H]1CCCN2CCCC[C@H]12)N1c2ccccc2Sc2ccc(Cl)cc21,TGI,OVCAR-8 ovarian,37.2 µM
same,TGI,MDA-N,30.9 µM
same,TGI,RXF 393 renal,29 µM
same,TGI,SK-MEL-5 melanoma,23.9 µM
same,TGI,HT29 colon,22.8 µM
same,TGI,COLO 205 colon,26.1 µM
same,TGI,SF-268 CNS,42.8 µM
same,TGI,NCI-H23 lung,29.1 µM
same,TGI,HOP-62 NSCLC,26 µM
same,TGI,NCI-H460 lung,28.3 µM
Nc1ccc(Oc2ccc(C34CC5CC(C3)CC(c3ccc(Oc6ccc(N)cc6C(F)(F)F)cc3)(C5)C4)cc2)c(C(F)(F)F)c1,TGI,OVCAR-8 ovarian,29.5 µM
same,TGI,MDA-N,> 100 µM
same,TGI,RXF 393 renal,25.1 µM
same,TGI,OVCAR-4 ovarian,> 100 µM
same,TGI,SK-MEL-5 melanoma,39.9 µM
same,TGI,HT29 colon,35.6 µM
same,TGI,COLO 205 colon,37.1 µM
same,TGI,SK-MEL-2 melanoma,28.8 µM
same,TGI,SF-268 CNS,43.9 µM
same,TGI,NCI-H23 lung,45.6 µM
same,TGI,HOP-62 NSCLC,44.9 µM
same,TGI,NCI-H460 lung,37.9 µM
Cn1cc(NC(=O)Nc2cc(C(=O)Nc3cc(C(=O)Nc4ccc5cc(S(=O)(=O)O)cc(S(=O)(=O)O)c5c4)n(C)c3)n(C)c2)cc1C(=O)Nc1cc(C(=O)Nc2ccc3cc(S(=O)(=O)O)cc(S(=O)(=O)O)c3c2)n(C)c1,TGI,OVCAR-8 ovarian,> 100 µM
same,TGI,MDA-N,> 100 µM
same,TGI,RXF 393 renal,> 100 µM
same,TGI,OVCAR-4 ovarian,> 100 µM
same,TGI,SK-MEL-5 melanoma,> 100 µM
same,TGI,HT29 colon,> 100 µM
same,TGI,COLO 205 colon,> 100 µM
same,TGI,SF-268 CNS,> 100 µM
same,TGI,NCI-H23 lung,> 100 µM
same,TGI,HOP-62 NSCLC,> 100 µM
same,TGI,NCI-H460 lung,> 100 µM
Cc1ccc(S(=O)(=O)C2=Cc3ccccc3C2(O)c2ccccc2)cc1 (stereo unspecified),TGI,OVCAR-8 ovarian,81.2 µM
same,TGI,MDA-N,48.2 µM
same,TGI,SK-MEL-5 melanoma,31.2 µM
same,TGI,HT29 colon,36.1 µM
same,TGI,COLO 205 colon,62.6 µM
same,TGI,SK-MEL-2 melanoma,31.4 µM
same,TGI,SF-268 CNS,> 100 µM
same,TGI,NCI-H23 lung,> 100 µM
same,TGI,HOP-62 NSCLC,> 10 µM
same,TGI,NCI-H460 lung,54.6 µM
O=S(=O)(CC(Cl)c1ccccc1)c1nc2ccccc2s1 (stereo unspecified),TGI,OVCAR-8 ovarian,23.8 µM
same,TGI,MDA-N,18.1 µM
same,TGI,RXF 393 renal,42 µM
same,TGI,OVCAR-4 ovarian,51.1 µM
same,TGI,SK-MEL-5 melanoma,16.7 µM
same,TGI,HT29 colon,21.2 µM
same,TGI,COLO 205 colon,22.2 µM
same,TGI,SK-MEL-2 melanoma,37.4 µM
same,TGI,SF-268 CNS,33.1 µM
same,TGI,NCI-H23 lung,25.5 µM
same,TGI,HOP-62 NSCLC,41.1 µM
same,TGI,NCI-H460 lung,52.4 µM
CC(=O)NC1=NC(=O)/C(=C/c2ccccc2Cl)N1C,TGI,OVCAR-8 ovarian,> 100 µM
same,TGI,MDA-N,> 100 µM
same,TGI,RXF 393 renal,> 100 µM
same,TGI,OVCAR-4 ovarian,> 100 µM
same,TGI,SK-MEL-5 melanoma,> 100 µM
same,TGI,HT29 colon,> 100 µM
same,TGI,COLO 205 colon,> 100 µM
same,TGI,SK-MEL-2 melanoma,> 100 µM
same,TGI,SF-268 CNS,> 100 µM
same,TGI,NCI-H23 lung,> 100 µM
same,TGI,HOP-62 NSCLC,> 100 µM
same,TGI,NCI-H460 lung,> 100 µM
